Results: patent US7318917B2, “Rapid assays for neurotransmitter transporters” (Vanderbilt University, priority 2002, dated 2008)

Molecular target: T1, SERT (Homo sapiens, UniProt P31645)
T1 construct: expressed in transfected cells
Experiment: ASP+ uptake assay on FLEXstation, SERT-transfected HEK-293 cells
Format: cell-based
Details: FIG. 10C
Protocol: HEK-293 cells (American Type Culture Collection, Manassas, Va.) and HEK-293 cells stably transfected with SERT, NET, or DAT (Qian et al, 1997) were maintained in monolayer culture at 37° C., 5% CO2 in Dulbecco's modified Eagle's medium (DMEM) containing 10% fetal bovine serum, 2 mM glutamine, 100 units/ml penicillin, and 100 μg/ml streptomycin. Medium for the transfected lines was supplemented with G418 (250 μg/ml). Trypsin, glutamine, penicillin, streptomycin, G418, and phosphate-free DMEM were purchased from Life Technologies, Inc. or obtained from the Vanderbilt Media Core. For all transport assays, cells were plated on poly-D-lysine (0.1 mg/ml)-coated (0.1 mg/ml)-coated 96-well plates. […]
To limit the time delay between the addition of ASP^+ and the measurement of accumulation of ASP^+ during the kinetic assays, plates were divided in half and assayed one half at a time. […] After incubation, ASP^+ was added to the first 6 columns in 20 μL aliquots at indicated concentrations and accumulated fluorescence measured and recorded over time by the FLEXStation ultilizing SoftMax Pro Software. Then, ASP^+ was added to the last 6 columns and fluorescence accumulation measured and recorded. […]
Endpoint assays were conducted to evaluate the sensitivity of ASP^+ uptake to transporter antagonists. […] ASP^+ accumulation was measured after 10 minutes. […]

T1 sequence (P31645 whole entry): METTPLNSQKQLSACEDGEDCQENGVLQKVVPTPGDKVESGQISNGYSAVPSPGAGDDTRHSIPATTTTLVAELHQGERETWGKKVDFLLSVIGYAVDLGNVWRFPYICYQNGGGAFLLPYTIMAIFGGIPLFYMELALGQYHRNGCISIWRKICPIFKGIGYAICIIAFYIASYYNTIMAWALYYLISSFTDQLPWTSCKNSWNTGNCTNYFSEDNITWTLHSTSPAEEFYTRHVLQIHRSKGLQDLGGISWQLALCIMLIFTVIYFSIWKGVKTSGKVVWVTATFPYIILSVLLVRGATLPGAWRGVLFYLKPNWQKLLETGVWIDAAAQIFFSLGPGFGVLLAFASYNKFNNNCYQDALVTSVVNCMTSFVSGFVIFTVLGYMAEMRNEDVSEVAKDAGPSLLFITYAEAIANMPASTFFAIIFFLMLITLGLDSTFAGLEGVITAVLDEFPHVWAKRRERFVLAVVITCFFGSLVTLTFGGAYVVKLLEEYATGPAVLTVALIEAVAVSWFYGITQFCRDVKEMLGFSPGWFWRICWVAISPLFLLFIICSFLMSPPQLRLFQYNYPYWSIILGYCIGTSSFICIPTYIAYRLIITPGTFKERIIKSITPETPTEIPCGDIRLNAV

SMILES: CN(C)c1ccc(C=Cc2cc[n+](C)cc2)cc1 [ASP^+, 4-(4-dimethylaminostyrl)-N-methylpyridinium]
- concentration-response of ASP+ accumulation, SERT: concentration-dependent accumulation
